According to patent US20030026786A1, “CHONDROGENIC DIFFERENTIATION OF HUMAN MESENCHYMAL STEM CELLS” (priority 1999, published 2003):
Entries after “also recorded” stand apart in the source; their conditions may differ.

Experiments:
[1] = test system: hMSCs in pellet culture; experiment: Induction of hypertrophy in hMSC pellet culture by sequential treatment with two media; format: cell-based, human; settings: for inducing hypertrophy: other preliminary experiments
[2] = test system: Human bone marrow-derived mesenchymal stem cells; experiment: Chondrogenic differentiation of MSC pellets with TGF-β1 or TGF-β3 (toluidine blue, collagen and COMP immunostaining); format: cell-based; settings: 10 ng/ml
Protocol: Human bone marrow-derived mesenchymal stem cells were cultured under standard conditions in the presence of 10% FBS until confluent. The cells were trypsinized, washed twice with chondrogenic medium, and resuspended at a density of 200,000 cells/ml in 15 ml polypropylene tubes in chondrogenic medium containing either 10 ng/ml TGF-01, TGF-β3 or neither of these. […] Frozen sections (8 μn) were stained with Toluidine blue. They were also stained for the following using standard immunocytochemistry protocols: collagen type 11, collagen type 1, and cartilage oligomeric matrix protein (COMP).

[3] = test system: human mesenchymal stem cells (hMSCs); experiment: hMSC pellet culture in chondrogenic medium with low or high sugar concentration (pellet size, type II collagen immunostaining, toluidine blue); format: cell-based; settings: low-glucose medium supplemented with 3.5 g/l fructose; compared with high-glucose medium (4.5 g/l glucose)
Protocol: The hMSCs in pellet culture that are undergoing chondrogenic differentiation express the extracellular matrix proteoglycans mentioned above. […] In FIG. 1, the increase in the size of the cell pellet is evident when the medium contains “high glucose”. Changes in the size of hMSC pellets reflect the extent of synthesis of extracellular matrix components. Each pellet was formed by transferring an aliquot of 200,000 cells into ½ ml chondrogenic medium with 1 g/l (5.5 mM) glucose (left) or 4.5 g/l (25 mM) glucose ( right). The chondrogenic medium consisted of DMEM with the stated concentration of glucose and the following supplements: 100 nM dexamethasone, 10 ng/ml Transforming Growth Factor)β, 1 mM sodium pyruvate, 5 μg/ml ascorbic acid-2-phosphate, and 40 μg/ml proline. A 1:99 dilution of “ITS+” supplied 6.25 μg/ml bovine insulin, 6.25 μg/ml transferrin, […], 5.33 μg/ml linoleic acid, and 1.25 mg/ml bovine serum albumin. Final concentrations of 100 U/ml penicillin, 100 μg/ml streptomycin, and 250 ng/ml amphotericin B were supplied by a 1:99 dilution of a concentrated antibiotic solution. The cells and medium were placed into a 15 ml polypropylene conical-bottom centrifuge tube, and gently centrifuged (500× g for 5 min.), after which the tubes with loosened caps were placed in a humidified 5% CO2 incubator at 37 C. […]

[4] = no TGF-β3, 50 nM thyroxine, 20 mM β-glycerol phosphate, 10^−9 M dexamethasone, compared to standard chondrogenic medium for 28 days

`N[C@@H](Cc1cc(I)c(Oc2ccc(O)c(I)c2)c(I)c1)C(=O)O` [T3] was tested, and the inducing hypertrophy [1] was “effective”.

With “TGF-β1: member of the transforming growth factor-β superfamily, known promoter of cartilage formation” the “type II collagen expression” value ([2]; 14 days) was “localized expression of type II collagen”, the “type II collagen staining” value ([2]; 21 days in culture) was “staining throughout the pellet except for the perimeter” and the “type II collagen expression” value ([2]; after 8 days in pellet culture) was “no expression of type II collagen”.

`N[C@@H](Cc1cc(I)c(Oc2cc(I)c(O)c(I)c2)c(I)c1)C(=O)O` [thyroxine] was tested, and the hypertrophy ([1]; no TGF-β3, 50 nM thyroxine combined with 20 mM β-glycerol phosphate and 10^−9 M dexamethasone, from day 14 to day 28) was “hypertrophic differentiation of hMSCs was the predominant pathway; also recorded: more prominent”, the “deposition of type X collagen (antibody X53)” value [1, 4] was “irregular but pronounced increase” and the “staining for type II and type IX collagens” value [1, 4] was “intense staining”. For the same molecule, the inducing hypertrophy [1] was “effective” and the hypertrophic effect ([1]; withdrawing TGF-β3 and adding 50 nM thyroxine after two weeks of chondrogenic differentiation, two additional weeks of culture) was “pronounced hypertrophic effect”.

In the case of `O=C(CO)[C@@H](O)[C@H](O)[C@H](O)CO` [fructose], the “improvement to in vitro chondrogenic differentiation” value [3] is reported as “same improvement”.

B1: TGF-β3: transforming growth factor beta-3, chondroinductive agent (protein, UniProt P10600 301-412, looked up)
Transforming growth factor …: ALDTNYCFRNLEENCCVRPLYIDFRQDLGWKWVHEPKGYYANFCSGPCPYLRSADTTHSTVLGLYNTLNPEASASPCCVPQDLEPLTILYYVGRTPKVEQLSNMVVKSCKCS
In the case of B1, the “cell morphology (hypertrophic cells)” value ([2]; 14 days) is reported as “A large proportion of the cells were hypertrophic”, the pellet size ([2]; 14 days) is reported as “larger in size” and the “type II collagen expression” value ([2]; 14 days) is reported as “expression of type II collagen throughout, except for a central area”. For the same molecule, the COMP staining ([2]; 21 days in culture) was “reduced pericellular staining and increased interterritorial staining”, the “type II collagen staining” value ([2]; 21 days in culture) was “very strong staining” and the “type II collagen expression” value ([2]; after 8 days in pellet culture) was “some cells-ex fessed type II collagen”. The “effect on chondrogenic differentiation of human MSCs in vitro” value ([2]; up to 21 days) was “dramatic effect; also recorded: more pronounced”.
